In US8317912B2, “Wet state preservation of mineral slurries” (Arch Chemicals, Inc., priority 2011, dated 2012):

Test system: contaminated slurry
Assay: Wet state preservation challenge test: dosed calcium carbonate slurry inoculated repeatedly with contaminated slurry, streaked on nutrient agar, examined for viable colonies; as to growth of viable colonies on nutrient agar: key: − = no growth (no visible colonies); <10 = very light growth; + = light growth; ++ = moderate growth; +++ = heavy growth
Format: cell-based, bacteria
Set-up: viable colonies on nutrient agar: unit not given here
Conditions: for efficacy in preserving contaminated slurry (summary of Tables 4-8): between 0.03% and 0.09% of biocide A plus the surfactant, compared to biocide A and the surfactant used alone; for growth of viable colonies on nutrient agar: Biocide A 0 %; for test outcome in place of 3rd inoculation: surfactant 0.1, 0.05, 0.025 and 0.01%, test completed after 2nd inoculation
Experimental: In this example, a calcium carbonate-containing aqueous slurry was sterilized to eradicate bacterial contamination by weighing out 40 g aliquots into 60 g glass bottles and autoclaving the aliquots for 20 minutes at 120° C. A series of samples were prepared by taking the 40 g aliquots of the sterilized slurry and dosing with 0.136, 0.091, 0.046, 0.023, 0.011, and 0% of a biocide composition (“Biocide A”) shown in Table 1 plus 0, 0.01, 0.025, 0.05, and 0.1% of a surfactant as shown in Table 2. All samples were allowed to stand for 24 hours to equilibrate.
After equilibration, each test sample was inoculated with 0.8 g of a contaminated slurry, the bacteria count of which is shown in Table 3. The samples were incubated at 30° C. After a contact time of 6 hours, 1, 2, 3, or 4 days, a small aliquot of each sample was streaked across the surface of nutrient agar, incubated at 30° C. for 48 hours and the surface was examined for viable colonies. The inoculation and assessment procedures were repeated at 3 or 4 day intervals for a period of 3 inoculations.

[1] = surfactant 0.01 %, 1st inoculation, 0.2 days
[2] = surfactant 0.01 %, 1st inoculation, 1 day
[3] = surfactant 0.01 %, 1st inoculation, 2 days
[4] = surfactant 0.01 %, 1st inoculation, 3 days
[5] = surfactant 0.025 %, 1st inoculation, 0.2 days
[6] = surfactant 0.025 %, 1st inoculation, 1 day
[7] = surfactant 0.025 %, 1st inoculation, 2 days
[8] = surfactant 0.025 %, 1st inoculation, 3 days
[9] = surfactant 0.05 %, 1st inoculation, 0.2 days
[10] = surfactant 0.05 %, 1st inoculation, 1 day
[11] = surfactant 0.05 %, 1st inoculation, 2 days
[12] = surfactant 0.05 %, 1st inoculation, 3 days
[13] = surfactant 0.1 %, 1st inoculation, 0.2 days
[14] = surfactant 0.1 %, 1st inoculation, 1 day
[15] = surfactant 0.1 %, 1st inoculation, 2 days
[16] = surfactant 0.1 %, 1st inoculation, 3 days
[17] = Biocide A 0.091%, surfactant 0.05%, 1st inoculation, 1 day
[18] = Biocide A 0.091%, surfactant 0.01%, 1st inoculation, 0.2 days
[19] = Biocide A 0.136%, surfactant 0.025%, 3rd inoculation, 1 day
[20] = Biocide A 0.136%, surfactant 0.05%, 3rd inoculation, 1 day

SMILES: CCCCCCCCCCCCOS(=O)(=O)[O-].[Na+] [SDS, Sodium dodecyl sulfate]
- viable colonies on nutrient agar (Biocide A 0.023%, surfactant 0.01%, 1st inoculation, 3 days): <10
- viable colonies on nutrient agar (Biocide A 0.023%, surfactant 0.025%, 1st inoculation, 1 day): <10
- viable colonies on nutrient agar (Biocide A 0.046%, surfactant 0.01%, 1st inoculation, 1 day): <10
- viable colonies on nutrient agar (Biocide A 0.046%, surfactant 0.01%, 3rd inoculation, 3 days): <10
- viable colonies on nutrient agar (Biocide A 0.046%, surfactant 0.05%, 1st inoculation, 0.2 days): <10
- viable colonies on nutrient agar (Biocide A 0.046%, surfactant 0.05%, 2nd inoculation, 1 day): <10
- viable colonies on nutrient agar (Biocide A 0.046%, surfactant 0.1%, 1st inoculation, 0.2 days): <10
- viable colonies on nutrient agar (Biocide A 0.046%, surfactant 0.1%, 2nd inoculation, 1 day): <10
- viable colonies on nutrient agar (Biocide A 0.091%, surfactant 0.025%, 3rd inoculation, 0.2 days): <10
- efficacy in preserving contaminated slurry (summary of Tables 4-8): improved efficacy
- growth of viable colonies on nutrient agar [1]: +++
- growth of viable colonies on nutrient agar [2]: +++
- growth of viable colonies on nutrient agar [3]: +++
- growth of viable colonies on nutrient agar [4]: +++
- growth of viable colonies on nutrient agar [5]: +++
- growth of viable colonies on nutrient agar [6]: +++
- growth of viable colonies on nutrient agar [7]: +++
- growth of viable colonies on nutrient agar [8]: +++
- growth of viable colonies on nutrient agar [9]: +++
- growth of viable colonies on nutrient agar [10]: +++
- growth of viable colonies on nutrient agar [11]: +++
- growth of viable colonies on nutrient agar [12]: +++
- growth of viable colonies on nutrient agar [13]: +++
- growth of viable colonies on nutrient agar [14]: +++
- growth of viable colonies on nutrient agar [15]: +++
- growth of viable colonies on nutrient agar [16]: +++

SMILES: CCCCC(CC)COC(=O)CC(C(=O)OCC(CC)CCCC)S(=O)(=O)[O-].[Na+] (centres unmarked) [Aerosol ® OT, Sodium dioctyl suphosuccinate]
- test outcome in place of 3rd inoculation (Biocide A 0.023%): SAMPLES FAILED
- viable colonies on nutrient agar (Biocide A 0.091%, surfactant 0.01%, 1st inoculation, 1 day): <10
- viable colonies on nutrient agar [17]: <10
- viable colonies on nutrient agar (Biocide A 0.136%, surfactant 0.025%, 1st inoculation, 1 day): <10
- efficacy in preserving contaminated slurry (summary of Tables 4-8): improved efficacy
- growth of viable colonies on nutrient agar [1]: +++
- growth of viable colonies on nutrient agar [2]: +++
- growth of viable colonies on nutrient agar [3]: +++
- growth of viable colonies on nutrient agar [4]: +++
- growth of viable colonies on nutrient agar [5]: +++
- growth of viable colonies on nutrient agar [6]: +++
- growth of viable colonies on nutrient agar [7]: +++
- growth of viable colonies on nutrient agar [8]: +++
- growth of viable colonies on nutrient agar [9]: +++
- growth of viable colonies on nutrient agar [10]: +++
- growth of viable colonies on nutrient agar [11]: +++
- growth of viable colonies on nutrient agar [12]: +++
- growth of viable colonies on nutrient agar [13]: +++
- growth of viable colonies on nutrient agar [14]: +++
- growth of viable colonies on nutrient agar [15]: +++
- growth of viable colonies on nutrient agar [16]: +++

SMILES: CCCCC(CC)CN(CCC(=O)[O-])CCC(=O)[O-].[Na+].[Na+] (centres unmarked) [Lakeland AMA LF70 ™]
- test outcome in place of 3rd inoculation (Biocide A 0.023%): SAMPLES FAILED
- viable colonies on nutrient agar (Biocide A 0.046%, surfactant 0.01%, 1st inoculation, 2 days): <10
- viable colonies on nutrient agar (Biocide A 0.046%, surfactant 0.1%, 1st inoculation, 2 days): <10
- viable colonies on nutrient agar [18]: <10
- viable colonies on nutrient agar (Biocide A 0.091%, surfactant 0.01%, 3rd inoculation, 2 days): <10
- viable colonies on nutrient agar (Biocide A 0.091%, surfactant 0.025%, 1st inoculation, 3 days): <10
- viable colonies on nutrient agar [17]: <10
- viable colonies on nutrient agar (Biocide A 0.091%, surfactant 0.05%, 1st inoculation, 3 days): <10
- viable colonies on nutrient agar (Biocide A 0.091%, surfactant 0.05%, 3rd inoculation, 2 days): <10
- viable colonies on nutrient agar (Biocide A 0.091%, surfactant 0.1%, 1st inoculation, 3 days): <10
- viable colonies on nutrient agar (Biocide A 0.091%, surfactant 0.1%, 3rd inoculation, 2 days): <10
- viable colonies on nutrient agar (Biocide A 0.136%, surfactant 0.01%, 1st inoculation, 3 days): <10
- viable colonies on nutrient agar [19]: <10
- viable colonies on nutrient agar (Biocide A 0.136%, surfactant 0.05%, 1st inoculation, 1 day): <10
- viable colonies on nutrient agar (Biocide A 0.136%, surfactant 0.05%, 1st inoculation, 3 days): <10
- viable colonies on nutrient agar [20]: <10
- viable colonies on nutrient agar (Biocide A 0.136%, surfactant 0.1%, 1st inoculation, 1 day): <10
- viable colonies on nutrient agar (Biocide A 0.136%, surfactant 0.1%, 1st inoculation, 3 days): <10

SMILES: CCCCCCCCCCCCc1ccc(S(=O)(=O)O)cc1 [Dodecyl benzene sulfonic acid]
- viable colonies on nutrient agar (Biocide A 0.023%, surfactant 0.01%, 1st inoculation, 2 days): <10
- viable colonies on nutrient agar (Biocide A 0.023%, surfactant 0.05%, 1st inoculation, 2 days): <10
- viable colonies on nutrient agar (Biocide A 0.023%, surfactant 0.05%, 1st inoculation, 3 days): <10
- viable colonies on nutrient agar (Biocide A 0.023%, surfactant 0.1%, 1st inoculation, 2 days): <10
- viable colonies on nutrient agar (Biocide A 0.023%, surfactant 0.1%, 1st inoculation, 3 days): <10
- test outcome in place of 3rd inoculation (Biocide A 0.023%): SAMPLES FAILED
- viable colonies on nutrient agar (Biocide A 0.046%, surfactant 0.025%, 3rd inoculation, 2 days): <10
- viable colonies on nutrient agar (Biocide A 0.046%, surfactant 0.05%, 3rd inoculation, 2 days): <10
- viable colonies on nutrient agar (Biocide A 0.046%, surfactant 0.1%, 3rd inoculation, 2 days): <10
- viable colonies on nutrient agar [18]: <10
- viable colonies on nutrient agar (Biocide A 0.091%, surfactant 0.01%, 3rd inoculation, 1 day): <10
- viable colonies on nutrient agar (Biocide A 0.091%, surfactant 0.05%, 1st inoculation, 0.2 days): <10
- viable colonies on nutrient agar (Biocide A 0.091%, surfactant 0.1%, 3rd inoculation, 1 day): <10
- viable colonies on nutrient agar (Biocide A 0.136%, surfactant 0.01%, 3rd inoculation, 1 day): <10
- viable colonies on nutrient agar [19]: <10
- viable colonies on nutrient agar [20]: <10
- efficacy in preserving contaminated slurry (summary of Tables 4-8): improved efficacy
- growth of viable colonies on nutrient agar [1]: +++
- growth of viable colonies on nutrient agar [2]: +++
- growth of viable colonies on nutrient agar [3]: +++
- growth of viable colonies on nutrient agar [4]: +++
- growth of viable colonies on nutrient agar [5]: +++
- growth of viable colonies on nutrient agar [6]: +++
- growth of viable colonies on nutrient agar [7]: +++
- growth of viable colonies on nutrient agar [8]: +++
- growth of viable colonies on nutrient agar [9]: +++
- growth of viable colonies on nutrient agar [10]: +++
- growth of viable colonies on nutrient agar [11]: +++
- growth of viable colonies on nutrient agar [12]: +++
- growth of viable colonies on nutrient agar [13]: +++
- growth of viable colonies on nutrient agar [14]: +++
- growth of viable colonies on nutrient agar [15]: +++
- growth of viable colonies on nutrient agar [16]: +++
